Results as given in patent US10365269B2, “System and methods for detecting ribosome inhibition” (priority 2015, dated 2019).
Entries after “also recorded” stand apart in the source; their conditions may differ.

What was measured:
Assay type in all cases: cell-based
TetR = biological target: T1, TetR (Escherichia coli, UniProt P04483); assay: Recovery of GFPuv fluorescence in E. coli DH5α containing pSH3-KF; details: saturating ATC
T1 construct: expressed in transfected cells; host or cells: E. coli DH5α transformed with pSH3-KF (tetR amplified from pSR26_2)
Experimental: (§1) All cell density and fluorescence measurements were taken in triplicate. 96-well culture plates (1 mL LB per well) with appropriate concentrations of necessary antibiotics and aminoglycoside were inoculated 1:100 from a saturated overnight liquid culture and allowed to grow for 48 hours at 37° C., 200 rpm shaking. For cell density assays, 40 μL of sample was taken from each well, diluted 5-fold, and OD600 was measured by microplate reader. The OD600 of the original culture was calculated by multiplying the reading by the dilution factor (Melançon et al., 2009, Bioorg. Med. Chem. Lett. 19:3845-3847). For cell pellet fluorescence imaging, cells were pelleted by centrifugation (4,000×g, 15 minutes, 4° C.) and the supernatant was decanted completely. […] For fluorescence quantification, cell pellets were resuspended in 1 mL of ¼×Ringer's solution (30.75 mM NaCl, 1.2 mM, KCl, 1.5 mM CaCl2, pH 7.3-7.4), 200 μL of cells from each well were transferred to black 96-well plates, and GFP fluorescence was measured (excitation=395 nm, bandwidth=9 nm; emission=509 nm, bandwidth=15 nm). Fluorescence intensities were calculated as fluorescence/OD600 of the sample minus fluorescence/OD600 of a sample of a non-GFP-expressing E. coli strain parental to the strain being analyzed in order to correct for both cell density and E. coli auto-fluorescence. […]

O-ribosome [1] = assay: O-ribosome inhibition fluorescence assay in E. coli SH399 (pSH6-KF, pRRSH2-A1408G); details: for detection of O-ribosome inhibition (fluorescence signal): E. coli SH399, A1408G 16S rRNA, aminoglycoside 0-500 μM, 48 h; for dose-dependent fluorescence response pattern: E. coli SH399, increasing aminoglycoside concentrations; for relative ribosome inhibition activity (rank among ten compounds) / fluorescence at drug concentrations beyond those that give the peak response: E. coli SH399; for relative ribosome inhibition activity (rank among ten compounds): printed order: sisomicin, gentamicins, neomycin B, paromomycin, tobramycin, amikacin, ribostamycin, apramycin, kanamycin A, neamine
Experimental: (§2) All cell density and fluorescence measurements were taken in triplicate. 96-well culture plates (1 mL LB per well) with appropriate concentrations of necessary antibiotics and aminoglycoside were inoculated 1:100 from a saturated overnight liquid culture and allowed to grow for 48 hours at 37° C., 200 rpm shaking. For cell density assays, 40 μL of sample was taken from each well, diluted 5-fold, and OD600 was measured by microplate reader. The OD600 of the original culture was calculated by multiplying the reading by the dilution factor (Melançon et al., 2009, Bioorg. Med. Chem. Lett. 19:3845-3847). For cell pellet fluorescence imaging, cells were pelleted by centrifugation (4,000×g, 15 minutes, 4° C.) and the supernatant was decanted completely. The underside of the plate was illuminated at 365 nm using an ultraviolet handheld lamp and photgraphed with an 8 megapixel digital camera. For fluorescence quantification, cell pellets were resuspended in 1 mL of ¼×Ringer's solution (30.75 mM NaCl, 1.2 mM, KCl, 1.5 mM CaCl2, pH 7.3-7.4), 200 μL of cells from each well were transferred to black 96-well plates, and GFP fluorescence was measured (excitation=395 nm, bandwidth=9 nm; emission=509 nm, bandwidth=15 nm). Fluorescence intensities were calculated as fluorescence/OD600 of the sample minus fluorescence/OD600 of a sample of a non-GFP-expressing E. coli strain parental to the strain being analyzed in order to correct for both cell density and E. coli auto-fluorescence.
Dose-dependent fluorescence responses by E. coli SH399 was observed when treated with five of these compounds as determined by plate reader fluorescence assays (see section 1.6 for experimental details). (FIG. 4A and FIG. 20).

O-ribosome [2] = assay: O-ribosome inhibition fluorescence assay in E. coli SH431 (pSH6-KF, pRRSH2-U1406A); details: for detection of O-ribosome inhibition (fluorescence signal): E. coli SH431, U1406A 16S rRNA, aminoglycoside 0-500 μM; for relative potency as ribosome inhibitor (rank among four compounds): printed order: gentamicins, G418 and hygromycin B, kanamycin A
Experimental: as §2
(§3) To extend the approach to a system with a different aminoglycoside resistance mutation, prrnC-sacB was replaced with pRRSH2-U1406A (see Section 2.2.2 for vector construction) in E. coli SQ380 (E. coli SH424), which was then transformed with pSH6-KF, resulting in the detection strain E. coli SH431. E. coli SH431 was used to conduct ribosome inhibition assays identical to those performed with E. coli SH399. Dose-dependent fluorescence responses by E. coli SH431 were observed when treated with four of these compounds as determined by plate reader fluorescence assays (see section 1.6 for experimental details), including two to which E. coli SH399 was not resistant and therefore could not produce a response. (FIG. 4B and FIG. 20).

E. coli SH431 = assay: Cell density (OD600) growth assay of E. coli SH431
Experimental: as §2
as §3, with “E. coli SH431 was used to conduct ribosome inhibition assays identical to those performed with E. coli SH399.” left out, “(FIG. 4B and FIG. 20).” left out

O-ribosome [3] = assay: Ribosome inhibition fluorescence assay in E. coli SH391 (SH386 with pSH3-KF); details: E. coli SH391, kanamycin 0-500 μM
Experimental: All cell density and fluorescence measurements were taken in triplicate. 96-well culture plates (1 mL LB per well) with appropriate concentrations of necessary antibiotics and aminoglycoside were inoculated 1:100 from a saturated overnight liquid culture and allowed to grow for 48 hours at 37° C., 200 rpm shaking. For cell density assays, 40 μL of sample was taken from each well, diluted 5-fold, and OD600 was measured by microplate reader. The OD600 of the original culture was calculated by multiplying the reading by the dilution factor (Melançon et al., 2009, Bioorg. Med. Chem. Lett. 19:3845-3847). For cell pellet fluorescence imaging, cells were pelleted by centrifugation (4,000×g, 15 minutes, 4° C.) and the supernatant was decanted completely. […] For fluorescence quantification, cell pellets were resuspended in 1 mL of ¼×Ringer's solution (30.75 mM NaCl, 1.2 mM, KCl, 1.5 mM CaCl2, pH 7.3-7.4), 200 μL of cells from each well were transferred to black 96-well plates, and GFP fluorescence was measured (excitation=395 nm, bandwidth=9 nm; emission=509 nm, bandwidth=15 nm). Fluorescence intensities were calculated as fluorescence/OD600 of the sample minus fluorescence/OD600 of a sample of a non-GFP-expressing E. coli strain parental to the strain being analyzed in order to correct for both cell density and E. coli auto-fluorescence.

E. coli SH430 = assay: Cell viability (OD600) assay of E. coli SH430 (pRRSH2, wild-type 16S rRNA)
Excerpt: (§4) E. coli SQ380 was transformed with pRRSH2-A1408G; and prrnC-sacB was removed by sucrose counterselection, resulting in E. coli SH386. As a control, E. coli SQ380 was also transformed with pRRSH2; and prrnC-sacB was removed by sucrose counterselection, resulting in E. coli SH430.

E. coli SH386 = assay: Cell viability (OD600) assay of E. coli SH386 (pRRSH2-A1408G)
Excerpt: as §4

E. coli SH434 = assay: Growth inhibition assay of aminoglycoside-sensitive E. coli SH434 (pSH6-KF, pRRSH2)
Experimental: as §1

E. coli SH399 = assay: Cell density (OD600) growth assay of E. coli SH399; details: E. coli SH399, concentrations beyond peak fluorescence response
Experimental: as §1

T1 sequence (P04483 whole entry): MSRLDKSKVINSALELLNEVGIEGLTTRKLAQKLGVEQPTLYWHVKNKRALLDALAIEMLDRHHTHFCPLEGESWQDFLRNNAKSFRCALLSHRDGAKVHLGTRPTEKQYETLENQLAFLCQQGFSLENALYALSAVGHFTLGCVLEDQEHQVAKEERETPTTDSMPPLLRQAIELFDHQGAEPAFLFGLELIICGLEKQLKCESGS

Molecule | detection of O-ribosome inhibition (fluorescence signal) (O-ribosome [1]) | dose-dependent fluorescence response pattern (O-ribosome [1]) | detection of O-ribosome inhibition (fluorescence signal) (O-ribosome [2]) | resistance of SH431 conferred by the U1406A mutation (E. coli SH431) | fluorescence at drug concentrations beyond those that give the peak response (O-ribosome [1]) | also measured
Cc1c2c(c(O)c3c(O)cccc13)C(=O)[C@]1(O)C(=O)C(C(N)=O)=C(O)[C@@H](N(C)C)[C@@H]1C2 [anhydrotetracycline] | – | – | – | – | – | fluorescence level relative to the gfp-uv/tetR-expressing strain (TetR): 106.6%±1.2%
CN[C@@H]1[C@@H](O[C@H]2O[C@H](CO)[C@@H](N)[C@H](O)[C@H]2O)OC2C[C@@H](N)[C@@H](O[C@H]3[C@H](O)[C@@H](O)[C@H](N)C[C@@H]3N)OC2[C@@H]1O (stereo partly drawn) [apramycin] | able to detect O-ribosome inhibition | more gradual dose-dependent fluorescence increases | lack of signal | inability of the U1406A mutation to confer resistance | – | –
NC[C@H]1O[C@H](O[C@H]2[C@H](O)[C@@H](O[C@H]3O[C@H](CO)[C@@H](O)[C@H](N)[C@H]3O)[C@H](N)C[C@@H]2N)[C@H](O)[C@@H](O)[C@@H]1O [kanamycin, kanamycin A] | able to detect O-ribosome inhibition | robust dose-dependent increase in fluorescence; also recorded: more gradual dose-dependent fluorescence increases | able to detect O-ribosome inhibition | – | – | relative potency as ribosome inhibitor (rank among four compounds) (O-ribosome [2]; E. coli SH431): least potent; increase in fluorescence (O-ribosome [3]): ~50%; maximum induction of fluorescence (O-ribosome [3]; strong background fluorescence): 1.6 fold; growth inhibition (E. coli SH430; E. coli SH430, 10 μM kanamycin, 24 hours): significant growth inhibition; concentrations at which the strain cannot survive (E. coli SH430; E. coli SH430, 24 hours): above 10 μM; concentration up to which the strain is resistant (highest concentration tested) (E. coli SH386; E. coli SH386, A1408G): up to 500 μM; growth inhibition (E. coli SH386; E. coli SH386, any kanamycin concentration tested (up to 500 μM), 24 hours): no growth inhibition
NC[C@H]1O[C@H](O[C@H]2[C@H](O)[C@@H](O)[C@H](N)C[C@@H]2N)[C@H](N)[C@@H](O)[C@@H]1O [neamine] | – | – | – | – | – | relative ribosome inhibition activity (rank among ten compounds) (O-ribosome [1]; listed as Neamine): very weak; growth inhibition activity (E. coli SH434): very weak
NC[C@@H]1O[C@H](O[C@H]2[C@@H](O)[C@H](O[C@@H]3[C@@H](O)[C@H](N)C[C@H](N)[C@H]3O[C@H]3O[C@H](CN)[C@@H](O)[C@H](O)[C@H]3N)O[C@@H]2CO)[C@H](N)[C@@H](O)[C@@H]1O [neomycin, neomycin B] | able to detect O-ribosome inhibition | robust fluorescence responses at low concentrations | lack of signal | inability of the U1406A mutation to confer resistance | fluorescence decreases significantly | –
NC[C@@H]1O[C@H](O[C@H]2[C@@H](O)[C@H](O[C@@H]3[C@@H](O)[C@H](N)C[C@H](N)[C@H]3O[C@H]3O[C@H](CO)[C@@H](O)[C@H](O)[C@H]3N)O[C@@H]2CO)[C@H](N)[C@@H](O)[C@@H]1O [paromomycin] | able to detect O-ribosome inhibition | robust fluorescence responses at low concentrations | lack of signal | inability of the U1406A mutation to confer resistance | fluorescence decreases significantly | growth inhibition accompanying the decrease in fluorescence (E. coli SH399): accompanied by growth inhibition
CN[C@@H]1[C@@H](O)[C@@H](O[C@@H]2[C@@H](O)[C@H](O[C@H]3OC(CN)=CC[C@H]3N)[C@@H](N)C[C@H]2N)OC[C@]1(C)O [sisomicin] | – | – | – | – | – | relative ribosome inhibition activity (rank among ten compounds) (O-ribosome [1]): strongest ribosome inhibition activity
gentamicin [gentamicins] | able to detect O-ribosome inhibition | robust fluorescence responses at low concentrations | able to detect O-ribosome inhibition | – | fluorescence decreases significantly | response at higher concentrations (O-ribosome [2]; E. coli SH431): Dose-dependent decreases in response; relative potency as ribosome inhibitor (rank among four compounds) (O-ribosome [2]; E. coli SH431): most potent ribosome inhibitors; growth inhibition accompanying the decrease in fluorescence (E. coli SH399): accompanied by growth inhibition
